Where only a bound is given, the exact number is not on record here.

Holding throughout (type): cell-based
Test [1] relates to SK-N-SH neuroblastoma cells. The test is described as follows: Anti-proliferative activity (MTS assay) against SK-N-SH neuroblastoma cells. To be noted: Homo sapiens, SK-N-SH, 72 h. On the procedure:
The ability of compounds of the disclosure to inhibit the proliferation of SK-N-SH neuroblastoma cells was also assessed. […] Cell viability was normalised to control (vehicle alone) and dose response curves and IC50 values (Table 4) were determined using Graph Pad Prism 6.

A further test has as its system A549 (NSCLC). The test is described as follows: Anti-proliferative activity (Cell-Titre luminescence) against A549 non-small cell lung cancer cells. The settings on record: 72 h exposure, Cell-Titre luminescent reagent. An outline of the steps: (§1)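 Cells grown 24 h at 37 °C, 5% CO2, then exposed 72 h to compound at 30, 10, 3, 1, 0.3 and 0.1 μM. Viability by Cell-Titre luminescence (30 min), normalised to vehicle; EC50 from variable-slope sigmoidal nonlinear regression.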

For a further test, the system named is A2780 (ovarian). The test is described as follows: Anti-proliferative activity (Cell-Titre luminescence) against A2780 ovarian cancer cells. To be noted: 72 h exposure, Cell-Titre luminescent reagent. In a few lines:
as §1

Regarding `CC(C)C(CNc1nc(-c2cc[nH]c2)nc2ccccc12)N1CCN(C)CC1` (stereo not drawn) [Compound 5, N-(3-methyl-2-(4-methylpiperazin-1-yl)butyl)-2-(1H-pyrrol-3-yl)quinazolin-4-amine], the half-maximal inhibitory concentration (IC50) in test [1] worked out at 1.87 µM; in the test on A549 (NSCLC) (Homo sapiens, A549, 72 h), 2.74 µM; in the test on A2780 (ovarian) (Homo sapiens, A2780, 72 h) it was 0.901 µM.

For the compound `OCCNc1nc(NCc2ccccc2)nc2ccccc12` [Compound 31, 2-((2-(benzylamino)quinazolin-4-yl)amino)ethan-1-ol], the half-inhibitory concentration (IC50) amounted to 14.3 µM in test [1]; 3.61 µM in the test with A549 (NSCLC) (Homo sapiens, A549, 72 h); 1.21 µM with A2780 (ovarian) (Homo sapiens, A2780, 72 h).

In the case of `CN1CCN(CCNc2nc(Nc3cccc(C(F)(F)F)c3)nc3ccccc23)CC1` [Compound 41, N^4-(2-(4-methylpiperazin-1-yl)ethyl)-N^2-(3-(trifluoromethyl)phenyl)quinazoline-2,4-diamine], the IC50 in test [1] is 2.22 µM; in the test on A549 (NSCLC) (Homo sapiens, A549, 72 h), 3.06 µM; in the test on A2780 (ovarian) (Homo sapiens, A2780, 72 h) it was 0.855 µM.

As to `CN1CCN(CCNc2nc(NCCc3cccc(C(F)(F)F)c3)nc3ccccc23)CC1` [Compound 51, N^4-(2-(4-methylpiperazin-1-yl)ethyl)-N^2-(3-(trifluoromethyl)phenethyl)quinazoline-2,4-diamine], the IC50 in test [1] came to 1.4 µM; in the test with A549 (NSCLC) (Homo sapiens, A549, 72 h), 3.07 µM; in the test on A2780 (ovarian) (Homo sapiens, A2780, 72 h), 1.39 µM.

For `COc1ccc(CCNc2nc(NCCN3CCN(C)CC3)c3ccccc3n2)cc1` [Compound 54, N^2-(4-methoxyphenethyl)-N^4-(2-(4-methylpiperazin-1-yl)ethyl)quinazoline-2,4-diamine], the half-maximal inhibitory concentration (IC50) in test [1] turned out to be 1.15 µM; with A549 (NSCLC) (Homo sapiens, A549, 72 h) it was 4.65 µM; with A2780 (ovarian) (Homo sapiens, A2780, 72 h), 3.8 µM.

As for `Cc1ccccc1CCNc1nc(NCCN2CCN(C)CC2)c2ccccc2n1` [Compound 122, N^2-(2-methylphenethyl)-N^4-(2-(4-methylpiperazin-1-yl)ethyl)quinazoline-2,4-diamine], the IC50 is 3.17 µM in the test with A549 (NSCLC) (Homo sapiens, A549, 72 h) and 2.68 µM in the test on A2780 (ovarian) (Homo sapiens, A2780, 72 h).

As for `CN1CCN(CCNc2nc(NCCc3ccccc3Cl)nc3ccccc23)CC1` [Compound 123, N^2-(2-chlorophenethyl)-N^4-(2-(4-methylpiperazin-1-yl)ethyl)quinazoline-2,4-diamine], the concentration for half-maximal inhibition (IC50) in the test with A549 (NSCLC) (Homo sapiens, A549, 72 h) turned out to be 3.36 µM; with A2780 (ovarian) (Homo sapiens, A2780, 72 h), 2.38 µM.

Take `CN1CCN(CCNc2nc(NCCc3cccc(C#N)c3)nc3ccccc23)CC1` [Compound 126, 3-(2-((4-((2-(4-methylpiperazin-1-yl)ethyl)amino)quinazolin-2-yl)amino)ethyl)benzonitrile]: the IC50 was 14.8 µM with A549 (NSCLC) (Homo sapiens, A549, 72 h) and 2.5 µM in the test on A2780 (ovarian) (Homo sapiens, A2780, 72 h).

As to `Cc1ccc(CCNc2nc(NCCN3CCN(C)CC3)c3ccccc3n2)cc1` [Compound 127, N^2-(4-methylphenethyl)-N^4-(2-(4-methylpiperazin-1-yl)ethyl)quinazoline-2,4-diamine], the IC50 with A549 (NSCLC) (Homo sapiens, A549, 72 h) was 2.54 µM; with A2780 (ovarian) (Homo sapiens, A2780, 72 h), 2.62 µM.

As to `CN1CCN(CCNc2nc(NCCc3ccc(Cl)cc3)nc3ccccc23)CC1` [Compound 130, N^2-(4-chlorophenethyl)-N^4-(2-(4-methylpiperazin-1-yl)ethyl)quinazoline-2,4-diamine], the IC50 came out at 10.9 µM with A549 (NSCLC) (Homo sapiens, A549, 72 h) and 2.88 µM in the test on A2780 (ovarian) (Homo sapiens, A2780, 72 h).

Take `CN1CCN(CCNc2nc(NCCc3ccc(C#N)cc3)nc3ccccc23)CC1` [Compound 131, 4-(2-((4-((2-(4-methylpiperazin-1-yl)ethyl)amino)quinazolin-2-yl)amino)ethyl)benzonitrile]: the half-inhibitory concentration (IC50) in the test on A549 (NSCLC) (Homo sapiens, A549, 72 h) stood at 11.5 µM; in the test on A2780 (ovarian) (Homo sapiens, A2780, 72 h), 3 µM.

Regarding `CN1CCN(CCNc2nc(NCCc3ccc(O)cc3)nc3ccccc23)CC1` [Compound 132, N^2-(4-hydroxyphenethyl)-N^4-(2-(4-methylpiperazin-1-yl)ethyl)quinazoline-2,4-diamine], the IC50 with A549 (NSCLC) (Homo sapiens, A549, 72 h) worked out at 8.03 µM; in the test with A2780 (ovarian) (Homo sapiens, A2780, 72 h) it was 4.71 µM.

For `CN1CCN(CCNc2nc(NCCc3ccc(N)cc3)nc3ccccc23)CC1` [Compound 133, N^2-(4-aminophenethyl)-N^4-(2-(4-methylpiperazin-1-yl)ethyl)quinazoline-2,4-diamine], the 50% inhibitory concentration (IC50) was 14.3 µM in the test on A549 (NSCLC) (Homo sapiens, A549, 72 h) and 7.17 µM with A2780 (ovarian) (Homo sapiens, A2780, 72 h).

For `CN1CCN(CCNc2nc(NCCc3ccc(N(C)C)cc3)nc3ccccc23)CC1` [Compound 134, N^2-(4-(dimethylamino)phenethyl)-N^4-(2-(4-methylpiperazin-1-yl)ethyl)quinazoline-2,4-diamine], the IC50 with A549 (NSCLC) (Homo sapiens, A549, 72 h) is 8.86 µM; with A2780 (ovarian) (Homo sapiens, A2780, 72 h), 2.68 µM.

As to `CN1CCN(CCNc2nc(NCCc3ccc(Cl)c(Cl)c3)nc3ccccc23)CC1` [Compound 135, N^2-(3,4-dichlorophenethyl)-N^4-(2-(4-methylpiperazin-1-yl)ethyl)quinazoline-2,4-diamine], the IC50 in the test on A549 (NSCLC) (Homo sapiens, A549, 72 h) was determined as 3.19 µM; in the test with A2780 (ovarian) (Homo sapiens, A2780, 72 h), 0.66 µM.

Regarding `CN1CCN(CCNc2nc(NCCc3ccc(F)c(F)c3)nc3ccccc23)CC1` [Compound 136, N^2-(3,4-difluorophenethyl)-N^4-(2-(4-methylpiperazin-1-yl)ethyl)quinazoline-2,4-diamine], the IC50 in the test with A549 (NSCLC) (Homo sapiens, A549, 72 h) amounted to 4.77 µM; in the test on A2780 (ovarian) (Homo sapiens, A2780, 72 h), 1.03 µM.

As for `COc1ccc(CCNc2nc(NCCN3CCN(C)CC3)c3ccccc3n2)cc1OC` [Compound 137, N^2-(3,4-dimethoxyphenethyl)-N^4-(2-(4-methylpiperazin-1-yl)ethyl)quinazoline-2,4-diamine], the IC50 in the test on A549 (NSCLC) (Homo sapiens, A549, 72 h) was determined as 13.4 µM; with A2780 (ovarian) (Homo sapiens, A2780, 72 h) it was 8.71 µM.

For `CN1CCN(CCNc2nc(NCCc3cc(F)cc(F)c3)nc3ccccc23)CC1` [Compound 138, N^2-(3,5-difluorophenethyl)-N^4-(2-(4-methylpiperazin-1-yl)ethyl)quinazoline-2,4-diamine], the IC50 was 6.07 µM with A549 (NSCLC) (Homo sapiens, A549, 72 h) and 1.1 µM in the test with A2780 (ovarian) (Homo sapiens, A2780, 72 h).

For `CN1CCN(CCNc2nc(NCCc3cc(Cl)cc(Cl)c3)nc3ccccc23)CC1` [Compound 139, N^2-(3,5-dichlorophenethyl)-N^4-(2-(4-methylpiperazin-1-yl)ethyl)quinazoline-2,4-diamine], the IC50 was found to be 3.44 µM with A549 (NSCLC) (Homo sapiens, A549, 72 h) and 1.1 µM in the test on A2780 (ovarian) (Homo sapiens, A2780, 72 h).

Regarding `COc1cc(CCNc2nc(NCCN3CCN(C)CC3)c3ccccc3n2)cc(OC)c1` [Compound 140, N^2-(3,5-dimethoxyphenethyl)-N^4-(2-(4-methylpiperazin-1-yl)ethyl)quinazoline-2,4-diamine], the IC50 amounted to 13.2 µM in the test on A549 (NSCLC) (Homo sapiens, A549, 72 h) and 7.26 µM in the test with A2780 (ovarian) (Homo sapiens, A2780, 72 h).

As to `CN1CCN(CCNc2nc(NCCc3cc(F)c(F)c(F)c3)nc3ccccc23)CC1` [Compound 141, N^4-(2-(4-methylpiperazin-1-yl)ethyl)-N^2-(3,4,5-trifluorophenethyl)quinazoline-2,4-diamine], the half-maximal inhibitory concentration (IC50) in the test with A549 (NSCLC) (Homo sapiens, A549, 72 h) was found to be 3.3 µM; in the test with A2780 (ovarian) (Homo sapiens, A2780, 72 h) it was 1.22 µM.

With `COc1cc(CCNc2nc(NCCN3CCN(C)CC3)c3ccccc3n2)cc(OC)c1OC` [Compound 142, N^4-(2-(4-methylpiperazin-1-yl)ethyl)-N^2-(3,4,5-trimethoxyphenethyl)quinazoline-2,4-diamine], the half-maximal inhibitory concentration (IC50) in the test on A549 (NSCLC) (Homo sapiens, A549, 72 h) was greater than 30 µM; in the test with A2780 (ovarian) (Homo sapiens, A2780, 72 h), greater than 30 µM.

For `CN1CCN(CCNc2nc(NCCc3ccc4c(c3)OCO4)nc3ccccc23)CC1` [Compound 143, N^2-(2-(benzo[d][1,3]dioxol-5-yl)ethyl)-N^4-(2-(4-methylpiperazin-1-yl)ethyl)quinazoline-2,4-diamine], the IC50 in the test with A549 (NSCLC) (Homo sapiens, A549, 72 h) turned out to be 9.48 µM; in the test with A2780 (ovarian) (Homo sapiens, A2780, 72 h), 3.01 µM.

As to `CN1CCN(CCNc2nc(NCCc3ccccn3)nc3ccccc23)CC1` [Compound 144, N^4-(2-(4-methylpiperazin-1-yl)ethyl)-N^2-(2-(pyridin-2-yl)ethyl)quinazoline-2,4-diamine], the IC50 in the test on A549 (NSCLC) (Homo sapiens, A549, 72 h) turned out to be 27.8 µM; with A2780 (ovarian) (Homo sapiens, A2780, 72 h), 9.37 µM.

With `CN1CCN(CCNc2nc(NCCc3cccnc3)nc3ccccc23)CC1` [Compound 145, N^4-(2-(4-methylpiperazin-1-yl)ethyl)-N^2-(2-(pyridin-3-yl)ethyl)quinazoline-2,4-diamine], the IC50 was greater than 30 µM in the test with A549 (NSCLC) (Homo sapiens, A549, 72 h) and 10.9 µM with A2780 (ovarian) (Homo sapiens, A2780, 72 h).

Consider `CN1CCN(CCNc2nc(NCCc3ccncc3)nc3ccccc23)CC1` [Compound 146, N^4-(2-(4-methylpiperazin-1-yl)ethyl)-N^2-(2-(pyridin-4-yl)ethyl)quinazoline-2,4-diamine], for which the IC50 in the test on A549 (NSCLC) (Homo sapiens, A549, 72 h) came out at 15.7 µM; with A2780 (ovarian) (Homo sapiens, A2780, 72 h) it was 14.1 µM.

Regarding `CN1CCN(CCNc2nc(NCCc3cccs3)nc3ccccc23)CC1` [Compound 147, N^4-(2-(4-methylpiperazin-1-yl)ethyl)-N^2-(2-(thiophen-2-yl)ethyl)quinazoline-2,4-diamine], the half-maximal inhibitory concentration (IC50) in the test with A549 (NSCLC) (Homo sapiens, A549, 72 h) amounted to 3.18 µM; in the test with A2780 (ovarian) (Homo sapiens, A2780, 72 h), 2.81 µM.

`CN1CCN(CCNc2nc(NCCc3ccco3)nc3ccccc23)CC1` [Compound 148, N^2-(2-(furan-2-yl)ethyl)-N^4-(2-(4-methylpiperazin-1-yl)ethyl)quinazoline-2,4-diamine]: the IC50 is greater than 30 µM with A549 (NSCLC) (Homo sapiens, A549, 72 h) and 7.77 µM with A2780 (ovarian) (Homo sapiens, A2780, 72 h).

With `OCCNc1nc(Nc2ccccc2O)nc2ccccc12` [Compound 149], the concentration for half-maximal inhibition (IC50) with A549 (NSCLC) (Homo sapiens, A549, 72 h) is 3.51 µM; with A2780 (ovarian) (Homo sapiens, A2780, 72 h), 5.04 µM.

In the case of `CN1CCN(CCNc2nc(OCCc3cccc(C(F)(F)F)c3)nc3ccccc23)CC1` [Compound 150, N-(2-(4-methylpiperazin-1-yl)ethyl)-2-(3-(trifluoromethyl)phenethoxy)quinazolin-4-amine], the IC50 in the test with A549 (NSCLC) (Homo sapiens, A549, 72 h) was 16.5 µM; in the test on A2780 (ovarian) (Homo sapiens, A2780, 72 h), 12.2 µM.

As for `CN1CCN(CCNc2nc(SCCc3cccc(C(F)(F)F)c3)nc3ccccc23)CC1` [Compound 151, N-(2-(4-methylpiperazin-1-yl)ethyl)-2-((3-(trifluoromethyl)phenethyl)thio)quinazolin-4-amine], the half-inhibitory concentration (IC50) amounted to 7.41 µM in the test with A549 (NSCLC) (Homo sapiens, A549, 72 h) and 5.81 µM in the test on A2780 (ovarian) (Homo sapiens, A2780, 72 h).

As for “N^2-(3-methoxyphenyl)-N^4-(2-(4-methylpiperazin-1-yl)ethyl)quinazoline-2,4-diamine [Compound 43]”, the figures for the half-inhibitory concentration (IC50) in the test on A549 (NSCLC) and in the test with A2780 (ovarian) were 6.09 µM and 1.03 µM, respectively.

The record behind these values is patent US20230339866A1, “Quinazoline compounds and the use thereof in the treatment of cancer” (TROBIO THERAPEUTICS PTY LTD, priority 2020, published 2023).
